Assay results taken from ChEMBL document CHEMBL1201862, “PubChem BioAssay data set” (2004).
The source made the active and inactive calls.

Tests used:
[1] = molecular target: T1, Heat shock factor protein 1 (Mus musculus, UniProt P38532); assay: inhibition of MG132-induced HSE-luciferase signal, confirmation, cell-based, NIH3T3, luminescence, dose retest (AID 2382); type: functional;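 further: NIH3T3 fibroblasts with HSF1-driven luciferase reporter stressed by proteasome inhibitor MG132; luminescence from HSF1-driven luciferase expression after 8 hours of MG132 stress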
T1 sequence (P38532 whole entry): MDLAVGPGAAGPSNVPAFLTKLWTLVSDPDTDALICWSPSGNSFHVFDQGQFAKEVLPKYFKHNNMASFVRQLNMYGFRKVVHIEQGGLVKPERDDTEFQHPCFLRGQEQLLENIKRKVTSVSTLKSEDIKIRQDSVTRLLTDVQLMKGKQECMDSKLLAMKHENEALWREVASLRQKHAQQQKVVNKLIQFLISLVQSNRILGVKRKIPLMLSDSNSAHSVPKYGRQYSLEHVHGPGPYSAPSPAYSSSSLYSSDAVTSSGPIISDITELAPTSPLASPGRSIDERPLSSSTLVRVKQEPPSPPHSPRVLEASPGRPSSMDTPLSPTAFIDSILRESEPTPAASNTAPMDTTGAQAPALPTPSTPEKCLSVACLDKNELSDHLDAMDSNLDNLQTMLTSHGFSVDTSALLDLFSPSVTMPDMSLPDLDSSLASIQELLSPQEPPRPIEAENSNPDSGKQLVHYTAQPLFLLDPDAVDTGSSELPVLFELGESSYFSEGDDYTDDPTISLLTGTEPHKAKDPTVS

Cytochrome P450 2C9 = Cytochrome P450 2C9 (Homo sapiens, UniProt P11712)
Cytochrome P450 2C9, sequence (P11712 whole entry): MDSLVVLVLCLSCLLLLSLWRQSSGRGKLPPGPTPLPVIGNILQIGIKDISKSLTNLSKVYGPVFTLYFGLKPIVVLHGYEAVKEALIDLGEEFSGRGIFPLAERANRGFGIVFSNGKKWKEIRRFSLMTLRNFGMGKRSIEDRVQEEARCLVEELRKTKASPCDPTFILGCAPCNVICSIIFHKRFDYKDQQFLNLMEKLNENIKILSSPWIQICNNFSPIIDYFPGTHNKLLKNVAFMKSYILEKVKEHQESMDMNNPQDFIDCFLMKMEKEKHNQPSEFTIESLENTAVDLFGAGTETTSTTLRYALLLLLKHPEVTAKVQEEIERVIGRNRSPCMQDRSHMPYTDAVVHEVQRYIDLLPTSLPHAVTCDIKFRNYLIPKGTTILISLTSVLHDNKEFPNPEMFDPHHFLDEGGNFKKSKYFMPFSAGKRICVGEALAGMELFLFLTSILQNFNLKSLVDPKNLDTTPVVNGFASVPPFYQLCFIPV

[2] = control 3'UTR Renilla luciferase suppression, dose response, counter-screen for Shn3 inhibitor project, cell-based, Clone20-Shn3RL, cherry-picked (AID 624133); type: functional
cells [3] = type: functional, cell-based
cells [4] = type: functional, cell-based; remark: listed apart in the source
[5] = molecular target: Luciferin 4-monooxygenase (Photinus pyralis, UniProt P08659); assay: firefly luciferase enzyme inhibitors, dose response, biochemical, luminescence (AID 1891)
Luciferin 4-monooxygenase, sequence (P08659 whole entry): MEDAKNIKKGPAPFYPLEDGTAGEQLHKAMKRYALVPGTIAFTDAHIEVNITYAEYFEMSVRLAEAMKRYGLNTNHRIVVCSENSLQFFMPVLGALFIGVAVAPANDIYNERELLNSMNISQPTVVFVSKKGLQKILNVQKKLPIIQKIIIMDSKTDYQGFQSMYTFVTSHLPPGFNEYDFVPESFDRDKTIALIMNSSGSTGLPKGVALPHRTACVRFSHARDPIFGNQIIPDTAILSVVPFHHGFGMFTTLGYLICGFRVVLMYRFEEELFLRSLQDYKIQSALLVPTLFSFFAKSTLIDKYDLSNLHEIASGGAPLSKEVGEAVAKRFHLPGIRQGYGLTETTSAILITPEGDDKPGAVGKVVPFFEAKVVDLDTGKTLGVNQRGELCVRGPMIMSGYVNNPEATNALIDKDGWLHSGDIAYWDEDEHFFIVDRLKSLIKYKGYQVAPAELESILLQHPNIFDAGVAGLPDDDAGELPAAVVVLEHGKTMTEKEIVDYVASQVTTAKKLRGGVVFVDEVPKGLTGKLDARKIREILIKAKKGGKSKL

[6] = Luminescence Cell-Based Dose Confirmation HTS to Identify Inhibitors of Platelet Dense Granule Release. [Related pubchem assays: 1663 (Primary HTS), 1678 (Summary of Project)]; type: functional
[7] = inhibitors of firefly luciferase expression or activity, dose response, H4 neuroglioma cells, luminescence (AID 1990); type: functional, cell-based
[8] = Luminescence Cell-Based Dose Response HTS to Identify Inhibitors of 5'UTR Stem-Loop Driven Prion Protein mRNA Translation in H4 Neuroglioblastoma Cells. [Related pubchem assays: 1827 (Project Summary), 1813 (Primary HTS)]; type: functional
[9] = inhibitors of SNCA 5'UTR-driven reporter translation, confirmation, H4 neuroglioma cells, luminescence (AID 1988); type: functional, cell-based
Cytochrome P450 2C19 = Cytochrome P450 2C19 (Homo sapiens, UniProt P33261); assay: Cytochrome panel assay with activity outcomes. Panel member name: p450-cyp2c19 Compounds with AC50 equal or less than 10 uM are considered active; type: functional; details: read-out: AC50
Cytochrome P450 2C19, sequence (P33261 whole entry): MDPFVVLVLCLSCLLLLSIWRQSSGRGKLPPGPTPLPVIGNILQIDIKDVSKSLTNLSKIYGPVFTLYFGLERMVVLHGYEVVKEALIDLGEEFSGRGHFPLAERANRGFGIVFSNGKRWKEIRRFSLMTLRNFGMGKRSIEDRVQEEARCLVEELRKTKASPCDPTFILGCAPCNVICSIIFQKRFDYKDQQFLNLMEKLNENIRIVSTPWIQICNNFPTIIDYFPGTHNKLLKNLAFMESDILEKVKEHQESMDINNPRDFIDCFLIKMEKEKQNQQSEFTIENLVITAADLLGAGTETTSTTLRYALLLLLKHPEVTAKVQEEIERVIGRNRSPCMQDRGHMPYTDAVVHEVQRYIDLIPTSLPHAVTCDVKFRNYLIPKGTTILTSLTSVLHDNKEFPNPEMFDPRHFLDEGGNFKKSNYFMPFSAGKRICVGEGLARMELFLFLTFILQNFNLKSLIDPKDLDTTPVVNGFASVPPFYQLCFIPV

Cytochrome P450 2D6 = Cytochrome P450 2D6 (Homo sapiens, UniProt P10635);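 further: CYP2D6 member of a cytochrome P450 panel assay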
Cytochrome P450 2D6, sequence (P10635 whole entry): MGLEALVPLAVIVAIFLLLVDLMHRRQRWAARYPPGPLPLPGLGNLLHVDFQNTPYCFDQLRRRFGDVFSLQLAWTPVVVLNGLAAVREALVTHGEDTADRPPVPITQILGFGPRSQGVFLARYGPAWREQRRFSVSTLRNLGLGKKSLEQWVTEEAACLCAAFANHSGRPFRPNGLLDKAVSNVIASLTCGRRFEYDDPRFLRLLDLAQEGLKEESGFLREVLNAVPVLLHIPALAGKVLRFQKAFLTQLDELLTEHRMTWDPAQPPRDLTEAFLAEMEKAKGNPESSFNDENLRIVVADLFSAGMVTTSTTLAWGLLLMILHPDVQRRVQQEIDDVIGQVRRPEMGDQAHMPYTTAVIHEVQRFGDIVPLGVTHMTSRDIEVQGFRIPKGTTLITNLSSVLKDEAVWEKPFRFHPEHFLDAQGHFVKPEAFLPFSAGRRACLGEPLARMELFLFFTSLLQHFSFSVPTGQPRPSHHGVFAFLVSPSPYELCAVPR

Cytochrome P450 3A4 = Cytochrome P450 3A4 (Homo sapiens, UniProt P08684);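 further: CYP3A4 tested as one member of a cytochrome P450 panel screen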
Cytochrome P450 3A4, sequence (P08684 whole entry): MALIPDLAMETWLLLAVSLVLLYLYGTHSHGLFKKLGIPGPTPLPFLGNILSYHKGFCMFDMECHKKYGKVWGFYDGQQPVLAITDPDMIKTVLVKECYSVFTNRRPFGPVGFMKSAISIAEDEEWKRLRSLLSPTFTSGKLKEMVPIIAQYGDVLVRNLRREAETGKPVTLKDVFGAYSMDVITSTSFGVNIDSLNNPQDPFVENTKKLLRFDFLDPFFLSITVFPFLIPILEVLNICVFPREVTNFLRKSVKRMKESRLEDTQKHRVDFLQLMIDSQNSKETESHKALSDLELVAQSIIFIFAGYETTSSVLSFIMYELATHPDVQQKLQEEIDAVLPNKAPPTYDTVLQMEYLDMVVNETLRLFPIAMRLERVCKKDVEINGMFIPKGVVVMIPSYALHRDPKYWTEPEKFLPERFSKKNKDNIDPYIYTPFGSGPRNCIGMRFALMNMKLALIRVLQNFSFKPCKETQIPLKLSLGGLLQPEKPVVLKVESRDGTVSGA

Cytochrome P450 1A2 = molecular target: T2, Cytochrome P450 1A2 (Homo sapiens, UniProt P05177);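 further: PubChem cytochrome P450 panel assay, CYP1A2 panel member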
T2 sequence (P05177 whole entry): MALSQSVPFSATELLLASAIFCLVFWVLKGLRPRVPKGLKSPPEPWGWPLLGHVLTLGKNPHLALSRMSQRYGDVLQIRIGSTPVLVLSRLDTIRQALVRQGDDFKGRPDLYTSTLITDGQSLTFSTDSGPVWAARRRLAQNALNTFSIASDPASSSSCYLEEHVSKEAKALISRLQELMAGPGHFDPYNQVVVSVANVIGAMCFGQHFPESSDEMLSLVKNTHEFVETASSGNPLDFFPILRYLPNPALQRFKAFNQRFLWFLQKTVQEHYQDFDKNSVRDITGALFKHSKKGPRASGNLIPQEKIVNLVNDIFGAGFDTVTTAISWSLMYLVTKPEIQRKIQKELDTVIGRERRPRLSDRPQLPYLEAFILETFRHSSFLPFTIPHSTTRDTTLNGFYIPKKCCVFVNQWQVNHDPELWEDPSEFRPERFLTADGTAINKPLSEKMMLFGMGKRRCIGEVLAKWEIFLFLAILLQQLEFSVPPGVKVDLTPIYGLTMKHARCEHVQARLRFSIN

Nonstructural protein 1 = Nonstructural protein 1 (Influenza A virus, UniProt Q194T2); type: functional, Influenza A virus (A/California/07/2009(H1N1))
Nonstructural protein 1, sequence (Q194T2 whole entry): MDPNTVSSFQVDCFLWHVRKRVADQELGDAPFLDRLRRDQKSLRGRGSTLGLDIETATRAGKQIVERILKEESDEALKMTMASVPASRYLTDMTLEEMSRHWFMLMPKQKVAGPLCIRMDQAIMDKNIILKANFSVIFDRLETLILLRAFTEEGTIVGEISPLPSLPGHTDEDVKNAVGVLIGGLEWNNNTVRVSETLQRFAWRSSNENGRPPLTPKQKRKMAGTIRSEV

cells [10] = type: functional
INS1 = assay: beta cell apoptosis inhibitors, cytokine rescue, dose response, luminescence, retest (AID 449756); type: functional, cell-based; details: Rattus norvegicus, INS1;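 further: cell death triggered by IL-1 beta plus TNF-alpha plus IFN-gamma mixture; protective hits raise ATP signal compared with cytokine alone wells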
[11] = HEp-2 cell cytotoxicity, dose response, cytotoxicity control for RSV inhibitor project, HTS (AID 2410); type: functional; details: human respiratory syncytial virus
[12] = molecular target: T1, Heat shock factor protein 1; assay: HSF1 potentiators in luciferase reporter cells, confirmation, cell-based, NIH3T3, luminescence, dose retest (AID 435004); type: functional;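 further: stress induced by proteasome inhibitor MG132 added 30 min after compound; luciferase reporter driven by HSF1 response element in NIH3T3 cells; actives raise luminescence as potentiators of the MG132 stress response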

C/C(=N\Nc1nc(-c2ccccc2)cs1)c1cccs1
EC50 [1]: > 195 µM (not active)

O=C(N/N=C/c1ccc2c(c1)OCO2)/C(=C/c1ccc2c(c1)OCO2)NC(=O)c1ccccc1
AC50 (Cytochrome P450 2C9): 12.6 µM (inconclusive)

Cc1ccc(C(OC(=O)c2ccco2)C(=O)NC2CCCCC2)cc1 (stereo unspecified)
AC50 (Cytochrome P450 2C9): 39.8 µM (inconclusive)

CC(C)(C)N(Cc1ccccc1)C(=O)COC(=O)CCc1c[nH]c2ccccc12
AC50 [2]: 25.9 µM (active)

CCCC(C)NC(=O)CN1C(=O)NC2(CCc3ccccc32)C1=O (stereo unspecified)
EC50 (cells [3]): > 350 µM (not active)
EC50 (cells [4]): > 350 µM (not active)

Cc1onc(-c2c(F)cccc2Cl)c1C(=O)NCC1COc2ccccc2O1 (stereo unspecified)
EC50 [5]: > 112 µM (not active)
EC50 [6]: > 112 µM (not active)

CC(=O)c1ccc(NC(=O)Nc2ccc([N+](=O)[O-])cc2C)cc1
EC50 [5]: > 112 µM (not active)
EC50 [6]: > 112 µM (not active)

COc1ccc(CN2CCN(S(=O)(=O)c3ccccc3)CC2)cc1Br
EC50 [7]: > 120 µM (not active)
EC50 [8]: > 120 µM (not active)
EC50 [1]: > 195 µM (not active)
EC50 [9]: > 120 µM (not active)

OCC[C@@H]1C[C@@H](O)[C@H](O)[C@@]2(Cc3ccccc3CO2)O1
EC50 [1]: > 195 µM (not active)

Cc1noc(COc2ccc(OCc3nc(C)no3)cc2)n1
AC50 (Cytochrome P450 2C19): 17.8 µM (inconclusive)
AC50 (Cytochrome P450 2C9): 39.8 µM (inconclusive)

CCS(=O)(=O)c1ccc2c(c1)N(S(C)(=O)=O)CC(C(=O)NCCOC)O2 (stereo unspecified)
AC50 (Cytochrome P450 2C9): 35.5 µM (inconclusive)

COc1ccc(-n2c(-c3cccc(OC)c3)nc(=S)c3c2CCCC3)cc1
EC50 [1]: > 195 µM (not active)

O=C(c1ccco1)N1CCC[C@@]2(CCN(Cc3nccs3)C2)C1
AC50 (Cytochrome P450 2C19): 39.8 µM (inconclusive)
AC50 (Cytochrome P450 2D6): 10 µM (inconclusive)
AC50 (Cytochrome P450 3A4): 7.94 µM (inconclusive)

COC(=O)Cc1ccc(NC(S)=NC(C)(C)C)cc1
EC50 (cells [3]): > 350 µM (not active)
EC50 (cells [4]): > 350 µM (not active)

COc1ccc(Oc2ncc3nc(-c4ccc(F)cc4)c(=O)n(Cc4cccs4)c3n2)cc1
AC50 (Cytochrome P450 1A2): 5.01 µM (inconclusive)
AC50 (Cytochrome P450 2C9): 3.16 µM (inconclusive)

CN(C)c1ccc(/C=C2/C(=O)Nc3ccccc32)cc1
AC50 (Cytochrome P450 2C9): 39.8 µM (inconclusive)

CCOC(=O)N1CCC(Nc2ncnc3c2cnn3-c2ccc(Cl)cc2)CC1
EC50 [1]: 89.4 µM (active)

CC1CCCN(C(=O)c2ccc3c(c2NCCO)C(=O)c2ccccc2C3=O)C1 (stereo unspecified)
IC50 (Nonstructural protein 1): 22 µM (active)

O=c1c(=Nc2ccccc2O)c(=O)c2ccccc12
IC50 (cells [10]): 3.81 µM (active)

Cc1cccc(C(=O)Nc2nnc(-c3cccnc3)o2)c1
IC50 (cells [10]): 9.52 µM (active)

CCn1c(N2CCC(Cc3ccccc3)CC2)nc2c1c(=O)[nH]c(=O)n2C
EC50 (cells [3]): > 350 µM (not active)
EC50 (cells [4]): > 350 µM (not active)

CC1CN=C(/C=C(\O)c2ccc(Br)cc2)C(=O)N1 (stereo unspecified)
EC50 (cells [3]): > 350 µM (not active)
EC50 [8]: 11.6 µM (inconclusive)
EC50 (cells [4]): 35.6 µM (active)

C=CCn1c2ccccc2c2nnc(SCC(=O)O)nc21
EC50 [1]: > 195 µM (not active)

Cc1cc2nc(-c3ccc(NC(=O)c4cccnc4)cc3)oc2cc1C
EC50 [5]: > 112 µM (not active)
EC50 [6]: > 112 µM (not active)
AC50 (INS1): 3.87 µM (active)

Cc1cc(C)c(C(=O)N2CCCC(N3CCN(c4cccc(C(F)(F)F)c4)CC3)C2)o1 (stereo unspecified)
EC50 (cells [3]): > 350 µM (not active)
EC50 (cells [4]): > 350 µM (not active)

CN(C)/C=N/C(=O)c1cn(-c2ccc(F)cc2)c(=O)c2ccccc12
EC50 (cells [3]): > 350 µM (not active)
EC50 (cells [4]): > 350 µM (not active)

O=C(COC(=O)c1ccccc1Cl)NCCC1=CCCCC1
IC50 (cells [10]): 29.9 µM (active)

Cc1ccc(CNC(=O)c2cnc3ccccc3n2)cc1
EC50 [5]: > 112 µM (not active)
EC50 [6]: > 112 µM (not active)

Cc1ccc([N+](=O)[O-])cc1NC(=O)CSc1n[nH]c(-c2cccnc2)n1
EC50 [1]: > 195 µM (not active)

Cc1cccc(C)c1NC(=O)C[S+]([O-])CC(=O)NCCCc1ccccc1 (stereo unspecified)
AC50 (Cytochrome P450 3A4): 14.1 µM (inconclusive)
AC50 (Cytochrome P450 2C9): 22.4 µM (inconclusive)

COCCn1c(=O)c(-c2cccc(C#N)c2)nc2cnc(N3CCN(C)CC3)nc21
AC50 (Cytochrome P450 1A2): 15.8 µM (inconclusive)
AC50 (Cytochrome P450 2C9): 3.98 µM (inconclusive)

COc1cccc(N2C(=O)N(c3ccccc3)C3CS(=O)(=O)CC32)c1 (stereo unspecified)
EC50 [1]: > 195 µM (not active)

O=C(CSc1nnnn1C1CCCC1)Nc1ccc(F)cc1
AC50 (Cytochrome P450 1A2): 25.1 µM (inconclusive)
AC50 (Cytochrome P450 2C9): 31.6 µM (inconclusive)

CC(C)CCNC(=O)Cn1cc2c(n1)CCCCC2
EC50 [1]: > 195 µM (not active)

COC(=O)[C@@]1(Cc2ccc(F)cc2)[C@H]2c3cc(C(=O)N4CCCC4)n(Cc4ccc(C)o4)c3C[C@H]2CN1C(=O)c1ccccc1
AC50 (Cytochrome P450 2D6): 39.8 µM (inconclusive)
AC50 (Cytochrome P450 1A2): 10 µM (inconclusive)

Cc1ccc(-c2cc(C(=O)Nc3cccnc3)[nH]n2)c(O)c1C
EC50 (cells [3]): > 350 µM (not active)
EC50 (cells [4]): 7.01 µM (active)

O/C(=C(\C([S-])=Nc1cccc2ccccc12)[n+]1ccccc1)c1cccs1
EC50 (cells [3]): > 350 µM (not active)
EC50 (cells [4]): > 350 µM (not active)

CCc1ccccc1N(CC(=O)N/N=C/c1ccc(OC(=O)OC)c(OC)c1)S(C)(=O)=O
EC50 [5]: > 112 µM (not active)
EC50 [6]: 43.7 µM (active)

Cc1cc(C(=O)NCc2ccccc2)no1
AC50 (Cytochrome P450 2C19): 28.2 µM (inconclusive)
AC50 (Cytochrome P450 2D6): 20 µM (inconclusive)
AC50 (Cytochrome P450 1A2): 0.398 µM (inconclusive)

CCOc1ccc2c(c1)c1nnc(SCC3CCCO3)nc1n2C (stereo unspecified)
CC50 [11]: > 50 µM (active)
EC50 (cells [3]): > 350 µM (not active)
EC50 (cells [4]): 52.4 µM (active)

Cc1cccc(Oc2nc3ccccn3c(=O)c2/C=C(\C#N)C(=O)NC2CCS(=O)(=O)C2)c1C (stereo unspecified)
EC50 [5]: > 112 µM (not active)
EC50 [6]: 4.44 µM (active)

Cc1ccc(S(=O)(=O)Nc2cccnc2)c(C)c1C
EC50 [1]: > 195 µM (not active)

Cc1ccc(N2C(=O)/C(=C/N3CCN(C(=O)c4ccco4)CC3)C(=O)NC2=S)cc1C
AC50 (Cytochrome P450 2C19): 39.8 µM (inconclusive)
AC50 (Cytochrome P450 3A4): 25.1 µM (inconclusive)
AC50 (Cytochrome P450 2C9): 20 µM (inconclusive)

COc1ccc(N2CCN(CCCNC(=O)c3cc4sccc4n3C)CC2)cc1
IC50 (Nonstructural protein 1): 39.4 µM (active)

CC1=NN(C(N)=S)C(C)(C)C1
EC50 [1]: > 195 µM (not active)

CCC(Cc1ccccc1)NS(=O)(=O)c1c(C)nc2sccn2c1=O (stereo unspecified)
EC50 [5]: > 112 µM (not active)
EC50 [6]: > 112 µM (not active)

COc1ccc(/C=C2\CCc3c2nc2ccccc2c3C(=O)O)cc1OC
EC50 [5]: 6.42 µM (active)
EC50 [6]: 73.5 µM (active)

O=C1/C(=C\c2ccc(-c3ccccc3[N+](=O)[O-])o2)C(c2ccccc2)=NN1c1ccccc1
IC50 (Nonstructural protein 1): 21.3 µM (active)

Cc1c(O)ccc(/C=N/Nc2ncccc2[N+](=O)[O-])c1O
EC50 [5]: 0.176 µM (active)
EC50 [6]: 1.12 µM (active)
EC50 [12]: > 260 µM (inconclusive)
